Reference: patent US7192906B2, “Substituted pyrazole derivatives, production process thereof, and herbicide compositions containing the derivatives” (SDS Biotech K.K., priority 2001, dated 2007)

How the values were obtained:
Type in all cases: in vivo
Chenopodium album [1] = assay: Test Example 1 upland field foliage treatment; settings: Table 4, upland field foliage treatment, index 0-5
Summary of the method: (§1)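 Post-emergence foliar spray, 1 kg a.i./ha, wettable powder diluted in water, applied 14 d after sowing in upland soil. Rating 21 d post-application, 0–5 scale: 5 ≥90%, 4 70–<90%, 3 50–<70%, 2 30–<50%, 1 10–<30%, 0 <10% effect or injury.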

Digitaria adscendens [2] = assay: Test Example 1 upland field foliage treatment; settings: Table 4, upland field foliage treatment, index 0-5
Summary of the method: as §1

Setaria viridis [3] = assay: Test Example 1 upland field foliage treatment; settings: Table 4, upland field foliage treatment, index 0-5
Summary of the method: as §1

Stellaria media [4] = assay: Test Example 1 upland field foliage treatment; settings: Table 4, upland field foliage treatment, index 0-5
Summary of the method: as §1

soybean (Glycine max) [5] = assay: Test Example 1 upland field foliage treatment, crop phytotoxicity; settings: Table 4, upland field foliage treatment, index 0-5
Summary of the method: as §1

[6] = test system: wheat (Triticum aestivum); assay: as above; settings: Table 4, upland field foliage treatment, index 0-5
Summary of the method: as §1

Chenopodium album [7] = assay: Test Example 2 upland soil treatment; settings: Table 5, upland soil treatment, index 0-5
Experimental: (§2) A plastic pot of 130 cm^2 was filled with upland soil. Subsequently, weed seeds of Setaria viridis, Digitaria adscendens, Chenopodium album and Stellaria media, and crop seeds of soybean (Glycine max) and wheat (Triticum aestivum), were sowed and covered with soil of about 1 cm thickness. On the next day after the sowing, the wettable powder prepared in Formulation Example 1 was diluted with water such that the amount of the active ingredient became 1 kg per hectare, and then uniformly applied to the soil surface. On the 21st day after the application, observation and evaluation were carried out according to the aforesaid criteria.
(§3) Herbicidal activity was evaluated based on the following criteria.
(§4) • 5: herbicidal effect of not less than 90%, or phytotoxicity of 90% or more • 4: herbicidal effect of not less than 70% and less than 90%, or phytotoxicity of 70% or more and less than 90% • 3: herbicidal effect of not less than 50% and less than 70%, or phytotoxicity of 50% or more and less than 70% • 2: herbicidal effect of not less than 30% and less than 50%, or phytotoxicity of 30% or more and less than 50% • 1: herbicidal effect of not less than 10% and less than 30%, or phytotoxicity of 10% or more and less than 30% • 0: herbicidal effect of not less than 0% and less than 10%, or phytotoxicity of 0% or more and less than 10%

Digitaria adscendens [8] = assay: Test Example 2 upland soil treatment; settings: Table 5, upland soil treatment, index 0-5
Experimental: as §2, §3, §4

Setaria viridis [9] = assay: Test Example 2 upland soil treatment; settings: Table 5, upland soil treatment, index 0-5
Experimental: as §2, §3, §4

Stellaria media [10] = assay: Test Example 2 upland soil treatment; settings: Table 5, upland soil treatment, index 0-5
Experimental: as §2, §3, §4

soybean (Glycine max) [11] = assay: Test Example 2 upland soil treatment, crop phytotoxicity; settings: Table 5, upland soil treatment, index 0-5
Experimental: as §2, §3, §4

[12] = test system: wheat (Triticum aestivum); assay: as above; settings: Table 5, upland soil treatment, index 0-5
Experimental: as §2, §3, §4

SMILES | Herbicidal activity CA: Chenopodium album (Chenopodium album [1]) | Herbicidal activity DA: Digitaria adscendens (Digitaria adscendens [2]) | Herbicidal activity SV: Setaria viridis (Setaria viridis [3]) | Herbicidal activity SM: Stellaria media (Stellaria media [4]) | Herbicidal activity (phytotoxicity) GM: Soybean (Glycine max) (soybean (Glycine max) [5]) | Herbicidal activity (phytotoxicity) TA: Wheat (Triticum aestivum) [6] | Herbicidal activity CA: Chenopodium album (Chenopodium album [7]) | Herbicidal activity DA: Digitaria adscendens (Digitaria adscendens [8]) | Herbicidal activity SV: Setaria viridis (Setaria viridis [9]) | Herbicidal activity SM: Stellaria media (Stellaria media [10]) | Herbicidal activity (phytotoxicity) GM: Soybean (Glycine max) (soybean (Glycine max) [11]) | Herbicidal activity (phytotoxicity) TA: Wheat (Triticum aestivum) [12]
CNC(=O)C(Cn1cc(C)c(-c2ccc(OCc3ccccc3)cc2)n1)=NOC [Compound 54] | 4 (herbicidal effect of not less than 70% and less than 90%, or phytotoxicity of 70% or more and less than 90%) | 5 (herbicidal effect of not less than 90%, or phytotoxicity of 90% or more) | 4 (herbicidal effect of not less than 70% and less than 90%, or phytotoxicity of 70% or more and less than 90%) | 4 (herbicidal effect of not less than 70% and less than 90%, or phytotoxicity of 70% or more and less than 90%) | 0 (herbicidal effect of not less than 0% and less than 10%, or phytotoxicity of 0% or more and less than 10%) | 0 (herbicidal effect of not less than 0% and less than 10%, or phytotoxicity of 0% or more and less than 10%) | 5 (herbicidal effect of not less than 90%, or phytotoxicity of 90% or more) | 4 (herbicidal effect of not less than 70% and less than 90%, or phytotoxicity of 70% or more and less than 90%) | 3 (herbicidal effect of not less than 50% and less than 70%, or phytotoxicity of 50% or more and less than 70%) | 5 (herbicidal effect of not less than 90%, or phytotoxicity of 90% or more) | 0 (herbicidal effect of not less than 0% and less than 10%, or phytotoxicity of 0% or more and less than 10%) | 0 (herbicidal effect of not less than 0% and less than 10%, or phytotoxicity of 0% or more and less than 10%)
CNC(=O)C(Cn1ccc(-c2ccccc2)n1)=NOC [Compound 13] | 4 (herbicidal effect of not less than 70% and less than 90%, or phytotoxicity of 70% or more and less than 90%) | 4 (herbicidal effect of not less than 70% and less than 90%, or phytotoxicity of 70% or more and less than 90%) | 3 (herbicidal effect of not less than 50% and less than 70%, or phytotoxicity of 50% or more and less than 70%) | 4 (herbicidal effect of not less than 70% and less than 90%, or phytotoxicity of 70% or more and less than 90%) | 0 (herbicidal effect of not less than 0% and less than 10%, or phytotoxicity of 0% or more and less than 10%) | 0 (herbicidal effect of not less than 0% and less than 10%, or phytotoxicity of 0% or more and less than 10%) | 5 (herbicidal effect of not less than 90%, or phytotoxicity of 90% or more) | 4 (herbicidal effect of not less than 70% and less than 90%, or phytotoxicity of 70% or more and less than 90%) | 4 (herbicidal effect of not less than 70% and less than 90%, or phytotoxicity of 70% or more and less than 90%) | 5 (herbicidal effect of not less than 90%, or phytotoxicity of 90% or more) | 0 (herbicidal effect of not less than 0% and less than 10%, or phytotoxicity of 0% or more and less than 10%) | 0 (herbicidal effect of not less than 0% and less than 10%, or phytotoxicity of 0% or more and less than 10%)
CNC(=O)C(Cn1cc(C)c(-c2cccc(Cl)c2)n1)=NOC [Compound 46] | 5 (herbicidal effect of not less than 90%, or phytotoxicity of 90% or more) | 5 (herbicidal effect of not less than 90%, or phytotoxicity of 90% or more) | 5 (herbicidal effect of not less than 90%, or phytotoxicity of 90% or more) | 5 (herbicidal effect of not less than 90%, or phytotoxicity of 90% or more) | 0 (herbicidal effect of not less than 0% and less than 10%, or phytotoxicity of 0% or more and less than 10%) | 0 (herbicidal effect of not less than 0% and less than 10%, or phytotoxicity of 0% or more and less than 10%) | 5 (herbicidal effect of not less than 90%, or phytotoxicity of 90% or more) | 5 (herbicidal effect of not less than 90%, or phytotoxicity of 90% or more) | 5 (herbicidal effect of not less than 90%, or phytotoxicity of 90% or more) | 5 (herbicidal effect of not less than 90%, or phytotoxicity of 90% or more) | 1 (herbicidal effect of not less than 10% and less than 30%, or phytotoxicity of 10% or more and less than 30%) | 0 (herbicidal effect of not less than 0% and less than 10%, or phytotoxicity of 0% or more and less than 10%)
CNC(=O)C(Cn1cc(C)c(-c2cc(F)cc(C(F)(F)F)c2)n1)=NOC [Compound 88] | 5 (herbicidal effect of not less than 90%, or phytotoxicity of 90% or more) | 5 (herbicidal effect of not less than 90%, or phytotoxicity of 90% or more) | 4 (herbicidal effect of not less than 70% and less than 90%, or phytotoxicity of 70% or more and less than 90%) | 5 (herbicidal effect of not less than 90%, or phytotoxicity of 90% or more) | 0 (herbicidal effect of not less than 0% and less than 10%, or phytotoxicity of 0% or more and less than 10%) | 0 (herbicidal effect of not less than 0% and less than 10%, or phytotoxicity of 0% or more and less than 10%) | 5 (herbicidal effect of not less than 90%, or phytotoxicity of 90% or more) | 4 (herbicidal effect of not less than 70% and less than 90%, or phytotoxicity of 70% or more and less than 90%) | 4 (herbicidal effect of not less than 70% and less than 90%, or phytotoxicity of 70% or more and less than 90%) | 5 (herbicidal effect of not less than 90%, or phytotoxicity of 90% or more) | 0 (herbicidal effect of not less than 0% and less than 10%, or phytotoxicity of 0% or more and less than 10%) | 0 (herbicidal effect of not less than 0% and less than 10%, or phytotoxicity of 0% or more and less than 10%)
CNC(=O)C(Cn1cc(C)c(-c2cccc(C)c2)n1)=NOC [Compound 36] | 5 (herbicidal effect of not less than 90%, or phytotoxicity of 90% or more) | 5 (herbicidal effect of not less than 90%, or phytotoxicity of 90% or more) | 4 (herbicidal effect of not less than 70% and less than 90%, or phytotoxicity of 70% or more and less than 90%) | 4 (herbicidal effect of not less than 70% and less than 90%, or phytotoxicity of 70% or more and less than 90%) | 0 (herbicidal effect of not less than 0% and less than 10%, or phytotoxicity of 0% or more and less than 10%) | 0 (herbicidal effect of not less than 0% and less than 10%, or phytotoxicity of 0% or more and less than 10%) | 5 (herbicidal effect of not less than 90%, or phytotoxicity of 90% or more) | 4 (herbicidal effect of not less than 70% and less than 90%, or phytotoxicity of 70% or more and less than 90%) | 4 (herbicidal effect of not less than 70% and less than 90%, or phytotoxicity of 70% or more and less than 90%) | 5 (herbicidal effect of not less than 90%, or phytotoxicity of 90% or more) | 1 (herbicidal effect of not less than 10% and less than 30%, or phytotoxicity of 10% or more and less than 30%) | 0 (herbicidal effect of not less than 0% and less than 10%, or phytotoxicity of 0% or more and less than 10%)
